Measured values reported in ChEMBL document CHEMBL3217456 (Medchemcomm, 2014).
Activity calls are given as the source filed them. The rule behind the calls is not given here.

How the values were obtained:
Histamine H4 receptor [1] = target: T1, Histamine H4 receptor (Homo sapiens, UniProt Q9H3N8); assay: (§1) Antagonist activity at human recombinant histamine H4 receptor-RGS19 fusion protein expressed in Sf9 cells coexpressing Galphai2,Gbeta1gamma2 assessed as inhibition of histamine-induced […] hydrolysis preincubated for 2 mins before [gamma32P]GTP addition measured after 20 mins by steady-state GTPase activity assay; format: functional
T1 sequence (Q9H3N8 whole entry, the tested form may be a part): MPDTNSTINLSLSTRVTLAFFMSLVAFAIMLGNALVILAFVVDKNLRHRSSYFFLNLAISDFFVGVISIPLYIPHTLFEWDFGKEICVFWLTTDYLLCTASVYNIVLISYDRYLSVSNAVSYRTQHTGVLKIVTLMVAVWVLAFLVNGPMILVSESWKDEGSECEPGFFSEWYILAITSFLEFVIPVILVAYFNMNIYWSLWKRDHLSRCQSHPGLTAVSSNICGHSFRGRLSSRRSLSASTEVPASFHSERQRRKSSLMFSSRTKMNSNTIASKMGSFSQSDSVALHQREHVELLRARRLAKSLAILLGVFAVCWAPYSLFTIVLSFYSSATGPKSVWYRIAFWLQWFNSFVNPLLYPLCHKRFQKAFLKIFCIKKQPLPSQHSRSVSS

Histamine H3 receptor [2] = target: T2, Histamine H3 receptor (Homo sapiens, UniProt Q9Y5N1); assay: as §1, with “H3 receptor” for “H4 receptor-RGS19 fusion protein”, “Galphai2,Gbeta1gamma2 and RGS4” for “Galphai2,Gbeta1gamma2”; format: functional
T2 sequence (Q9Y5N1 whole entry, the tested form may be a part): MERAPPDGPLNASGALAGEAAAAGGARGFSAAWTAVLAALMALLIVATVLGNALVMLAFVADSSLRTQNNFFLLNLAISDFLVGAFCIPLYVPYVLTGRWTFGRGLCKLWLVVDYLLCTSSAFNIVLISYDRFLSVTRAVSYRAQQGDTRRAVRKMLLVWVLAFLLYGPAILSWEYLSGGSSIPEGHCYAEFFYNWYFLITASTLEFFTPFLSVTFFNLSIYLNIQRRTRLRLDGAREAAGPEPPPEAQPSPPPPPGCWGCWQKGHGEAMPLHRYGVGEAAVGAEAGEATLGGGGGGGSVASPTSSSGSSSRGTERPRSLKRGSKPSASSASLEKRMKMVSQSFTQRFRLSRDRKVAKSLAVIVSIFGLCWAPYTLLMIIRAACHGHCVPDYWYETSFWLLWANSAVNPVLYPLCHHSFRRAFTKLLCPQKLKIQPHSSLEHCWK

[3] = target: Histamine H1 receptor (Homo sapiens) (UniProt P35367); assay: Antagonist activity at human recombinant histamine H1 receptor expressed in Sf9 cells coexpressing RGS4 assessed as inhibition of histamine-induced […] hydrolysis preincubated for 2 mins before [gamma32P]GTP addition measured after 20 mins by steady-state GTPase activity assay; format: functional
Histamine H1 receptor (Homo sapiens), sequence (P35367 whole entry, the tested form may be a part): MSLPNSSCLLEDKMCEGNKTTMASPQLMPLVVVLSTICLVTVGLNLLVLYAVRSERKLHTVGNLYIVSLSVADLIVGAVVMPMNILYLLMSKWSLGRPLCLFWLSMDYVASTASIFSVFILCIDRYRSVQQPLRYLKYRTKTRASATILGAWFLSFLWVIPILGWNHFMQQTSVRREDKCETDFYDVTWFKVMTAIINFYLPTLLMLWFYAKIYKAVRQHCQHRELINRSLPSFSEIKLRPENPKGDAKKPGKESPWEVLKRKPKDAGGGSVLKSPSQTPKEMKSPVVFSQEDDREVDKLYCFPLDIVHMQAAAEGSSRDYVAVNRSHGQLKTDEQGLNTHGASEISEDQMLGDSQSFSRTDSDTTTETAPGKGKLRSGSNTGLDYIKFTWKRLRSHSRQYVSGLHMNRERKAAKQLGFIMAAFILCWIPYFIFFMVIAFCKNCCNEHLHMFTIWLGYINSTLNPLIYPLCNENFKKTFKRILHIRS

[4] = target: Histamine H1 receptor (Homo sapiens) (UniProt P35367); assay: Intrinsic activity at human recombinant histamine H1 receptor expressed in Sf9 cells coexpressing RGS4 preincubated for 2 mins before [gamma32P]GTP addition measured after 20 mins by steady-state GTPase activity assay relative to histamine
Histamine H2 receptor [5] = target: T3, Histamine H2 receptor (Homo sapiens, UniProt P25021); assay: Intrinsic activity at human recombinant histamine H2 receptor-Gsalphas fusion protein expressed in Sf9 cells preincubated for 2 mins before [gamma32P]GTP addition measured after 20 mins by steady-state GTPase activity assay relative to histamine
T3 sequence (P25021 whole entry, the tested form may be a part): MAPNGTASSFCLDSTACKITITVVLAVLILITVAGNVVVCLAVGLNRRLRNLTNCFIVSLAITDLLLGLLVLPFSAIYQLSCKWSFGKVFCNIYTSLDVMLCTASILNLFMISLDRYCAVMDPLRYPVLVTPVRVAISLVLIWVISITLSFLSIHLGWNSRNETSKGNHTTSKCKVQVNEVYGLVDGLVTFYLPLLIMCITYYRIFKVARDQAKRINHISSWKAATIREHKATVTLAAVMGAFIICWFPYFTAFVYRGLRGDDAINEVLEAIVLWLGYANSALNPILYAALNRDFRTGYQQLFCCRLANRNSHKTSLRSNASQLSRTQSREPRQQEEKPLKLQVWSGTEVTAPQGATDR

Histamine H1 receptor = Histamine H1 receptor (Cavia porcellus, UniProt P31389); assay: Antagonist activity at guinea pig ileum histamine H1 receptor assessed as inhibition of histamine-induced response after 10 to 15 mins; format: tissue-based; conditions: read-out: pA2 (converted)
Histamine H1 receptor, sequence (P31389 whole entry): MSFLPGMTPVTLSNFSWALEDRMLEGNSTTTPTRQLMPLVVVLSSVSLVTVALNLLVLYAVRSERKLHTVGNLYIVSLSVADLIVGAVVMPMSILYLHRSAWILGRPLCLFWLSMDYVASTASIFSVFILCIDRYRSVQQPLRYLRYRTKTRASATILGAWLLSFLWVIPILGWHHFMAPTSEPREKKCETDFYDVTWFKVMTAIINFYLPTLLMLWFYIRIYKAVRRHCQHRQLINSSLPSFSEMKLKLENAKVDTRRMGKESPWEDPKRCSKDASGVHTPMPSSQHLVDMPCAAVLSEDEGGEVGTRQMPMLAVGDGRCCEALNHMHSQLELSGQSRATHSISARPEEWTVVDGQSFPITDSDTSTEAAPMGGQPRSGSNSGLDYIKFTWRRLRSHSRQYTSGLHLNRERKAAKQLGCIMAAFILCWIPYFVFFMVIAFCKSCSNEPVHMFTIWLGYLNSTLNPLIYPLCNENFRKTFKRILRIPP

Histamine H3 receptor [6] = target: T2, Histamine H3 receptor; assay: Intrinsic activity at human recombinant histamine H3 receptor expressed in Sf9 cells coexpressing Galphai2,Gbeta1gamma2 and RGS4 preincubated for 2 mins before [gamma32P]GTP addition measured after 20 mins by steady-state GTPase activity assay relative to histamine
Histamine H2 receptor [7] = target: T3, Histamine H2 receptor; assay: Antagonist activity at human recombinant histamine H2 receptor-Gsalphas fusion protein expressed in Sf9 cells assessed as inhibition of histamine-induced […] hydrolysis preincubated for 2 mins before [gamma32P]GTP addition measured after 20 mins by steady-state GTPase activity assay; format: functional
[8] = target: Histamine H2 receptor (Cavia porcellus) (UniProt P47747); assay: Antagonist activity at guinea pig histamine H2 receptor assessed as reduction of histamine-induced maximal response after 30 mins
Histamine H2 receptor (Cavia porcellus), sequence (P47747 whole entry, the tested form may be a part): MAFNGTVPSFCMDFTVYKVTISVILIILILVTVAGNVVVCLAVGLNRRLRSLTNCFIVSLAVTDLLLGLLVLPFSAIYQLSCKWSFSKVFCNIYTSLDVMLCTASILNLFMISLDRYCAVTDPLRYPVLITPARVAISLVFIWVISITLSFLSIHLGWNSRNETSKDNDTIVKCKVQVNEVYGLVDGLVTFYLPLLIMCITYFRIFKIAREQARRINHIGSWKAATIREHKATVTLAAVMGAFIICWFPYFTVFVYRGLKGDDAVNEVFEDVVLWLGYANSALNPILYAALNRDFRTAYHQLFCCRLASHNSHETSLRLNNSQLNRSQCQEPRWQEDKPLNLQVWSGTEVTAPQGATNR

Histamine H2 receptor [9] = target: T4, Histamine H2 receptor (Cavia porcellus, UniProt P47747); assay: (§2) Antagonist activity at guinea pig histamine H2 receptor assessed as inhibition of histamine-induced response after 30 mins; conditions: read-out: pA2 (converted)
T4 sequence (P47747 whole entry): as the sequence (P47747 whole entry, the tested form may be a part) above

[10] = target: Histamine H2 receptor (Cavia porcellus) (UniProt P47747); assay: as §2
Histamine H2 receptor [11] = target: T3, Histamine H2 receptor; assay: Agonist activity at human recombinant histamine H2 receptor-Gsalphas fusion protein expressed in Sf9 cells assessed as [35S]GTPgammaS binding after 90 mins by liquid scintillation counting; format: functional
Histamine H4 receptor [12] = target: T1, Histamine H4 receptor; assay: Agonist activity at human recombinant histamine H4 receptor-RGS19 fusion protein expressed in Sf9 cells coexpressing Galphai2,Gbeta1gamma2 assessed as [35S]GTPgammaS binding after 90 mins by liquid scintillation counting; format: functional
[13] = target: Histamine H1 receptor (Homo sapiens) (UniProt P35367); conditions: Sf9
Histamine H3 receptor [14] = target: T2, Histamine H3 receptor; assay: Agonist activity at human recombinant histamine H3 receptor expressed in Sf9 cells coexpressing Galphai2,Gbeta1gamma2 and RGS4 assessed as [35S]GTPgammaS binding after 90 mins by liquid scintillation counting; format: functional
Histamine H4 receptor [15] = target: T1, Histamine H4 receptor; assay: Intrinsic activity at human recombinant histamine H4 receptor-RGS19 fusion protein expressed in Sf9 cells coexpressing Galphai2,Gbeta1gamma2 preincubated for 2 mins before [gamma32P]GTP addition measured after 20 mins by steady-state GTPase activity assay relative to histamine
Histamine H4 receptor [16] = target: T1, Histamine H4 receptor; assay: Agonist activity at human recombinant histamine H4 receptor-RGS19 fusion protein expressed in Sf9 cells coexpressing Galphai2,Gbeta1gamma2 preincubated for 2 mins before [gamma32P]GTP addition measured after 20 mins by steady-state GTPase activity assay
[17] = target: Histamine H2 receptor (Cavia porcellus) (UniProt P47747); assay: Agonist activity at guinea pig histamine H2 receptor assessed as potentiation of histamine-induced response at 30 uM after 30 mins relative to histamine
[18] = target: Histamine H2 receptor (Cavia porcellus) (UniProt P47747); assay: Agonist activity at guinea pig histamine H2 receptor assessed as potentiation of histamine-induced response after 30 mins relative to histamine
[19] = target: Histamine H2 receptor (Cavia porcellus) (UniProt P47747); assay: Agonist activity at guinea pig histamine H2 receptor assessed as potentiation of histamine-induced response at 10 uM after 30 mins relative to histamine
Histamine H4 receptor [20] = target: T1, Histamine H4 receptor; assay: Intrinsic activity at human recombinant histamine H4 receptor-RGS19 fusion protein expressed in Sf9 cells coexpressing Galphai2,Gbeta1gamma2 assessed as [35S]GTPgammaS binding at 10 uM after 90 mins by liquid scintillation counting relative to histamine; format: functional
Histamine H4 receptor [21] = target: T1, Histamine H4 receptor; assay: Antagonist activity at human recombinant histamine H4 receptor-RGS19 fusion protein expressed in Sf9 cells coexpressing Galphai2,Gbeta1gamma2 assessed as inhibition of histamine-induced [35S]GTPgammaS binding after 90 mins by liquid scintillation counting; format: functional
Histamine H2 receptor [22] = target: T3, Histamine H2 receptor; assay: Intrinsic activity at human recombinant histamine H2 receptor-Gsalphas fusion protein expressed in Sf9 cells assessed as [35S]GTPgammaS binding at 10 uM after 90 mins by liquid scintillation counting relative to histamine; format: functional
Histamine H3 receptor [23] = target: T2, Histamine H3 receptor; assay: Intrinsic activity at human recombinant histamine H3 receptor expressed in Sf9 cells coexpressing Galphai2,Gbeta1gamma2 and RGS4 assessed as [35S]GTPgammaS binding at 10 uM after 90 mins by liquid scintillation counting relative to histamine; format: functional
Histamine H3 receptor [24] = target: T2, Histamine H3 receptor; assay: Antagonist activity at human recombinant histamine H3 receptor expressed in Sf9 cells coexpressing Galphai2,Gbeta1gamma2 and RGS4 assessed as inhibition of histamine-induced [35S]GTPgammaS binding after 90 mins by liquid scintillation counting; format: functional
Histamine H2 receptor [25] = target: T3, Histamine H2 receptor; assay: Agonist activity at human recombinant histamine H2 receptor-Gsalphas fusion protein expressed in Sf9 cells preincubated for 2 mins before [gamma32P]GTP addition measured after 20 mins by steady-state GTPase activity assay
Histamine H2 receptor [26] = target: T4, Histamine H2 receptor; assay: Agonist activity at guinea pig atrium histamine H2 receptor assessed as potentiation of histamine-induced response after 30 mins; set-up: species or system Cardiac atrium

SMILES	pKb (Histamine H4 receptor [1])	pKb (Histamine H3 receptor [2])	pKb [3]	Intrinsic activity [4]	Intrinsic activity (Histamine H2 receptor [5])	Intrinsic activity (Histamine H3 receptor [6])	pKb (Histamine H2 receptor [7])	pD'2 [8]	Kb (Histamine H2 receptor [9]) [µM]	pEC50 (Histamine H2 receptor [11])	other results
N/C(=N\C(=O)CC(c1ccccc1)c1ccccc1)NCCCn1ccnc1	< 5	< 5	< 5	0.01	-0.07	-0.07	5.82				Kb (Histamine H1 receptor): 2.34 µM
CC(CC(=O)/N=C(\N)NCCCc1ccncc1)c1ccccc1 (stereo not drawn)	< 5	< 5	< 5	0.12	0	-0.07	5.54	4.54	19.1		pD2 [10]: 4.54
CN/C(=N\C#N)NCCCCNc1nc(N)n[nH]1										inactive	pEC50 (Histamine H4 receptor [12]): inactive; pEC50 [13]: inactive; pEC50 (Histamine H3 receptor [14]): inactive
CC(CC(=O)/N=C(\N)NCCCc1ncc[nH]1)c1ccccc1 (stereo not drawn)		5.41	< 5	0.09	0.03	-0.32	5.3	4.44	12.6		Intrinsic activity (Histamine H4 receptor [15]): 0.35; EC50 (Histamine H4 receptor [16]): 2.88 µM; Emax [17]: 54%
CN/C(=N/C#N)NCCCCc1cnn[nH]1										inactive	pEC50 (Histamine H4 receptor [12]): inactive; pEC50 [13]: inactive; pEC50 (Histamine H3 receptor [14]): inactive
Cc1nc(N)sc1CCCNC(=N)NC(=O)CC(C)c1ccccc1 (stereo not drawn)								< 4.5	> 31.6		
CC(CC(=O)/N=C(\N)NCCCn1ccnc1)c1ccccc1 (stereo not drawn)		< 5	< 5			-0.05	< 5	4.16	> 31.6		Intrinsic activity (Histamine H4 receptor [15]): 0.77; EC50 (Histamine H4 receptor [16]): 1 µM; Emax [17]: 69%; Kb (Histamine H1 receptor): 1.12 µM
CC(CC(=O)/N=C(\N)NCCCc1ccc(CN(C)C)o1)c1ccccc1 (stereo not drawn)	< 5	5.92	< 5	0.04	-0.12	-0.64	6.52				Efficacy [18]: 0%; Emax [19]: 68%; Kb (Histamine H1 receptor): 3.02 µM
Cc1nc(CCCCN/C(=N\C#N)NCCSc2ccccc2)c[nH]1			< 5.3	-0.01							EC50 (Histamine H2 receptor [11]): 16.2 µM; Intrinsic activity (Histamine H4 receptor [20]): -0.24; pKb (Histamine H4 receptor [21]): 6.21; Intrinsic activity (Histamine H2 receptor [22]): -0.05; Intrinsic activity (Histamine H3 receptor [23]): -0.47; pKb (Histamine H3 receptor [24]): < 5
CN/C(=N\C#N)NCCNc1nccc(N)n1										inactive	Intrinsic activity (Histamine H4 receptor [20]): -0.11; pKb (Histamine H4 receptor [21]): < 5; pEC50 [13]: inactive; Intrinsic activity (Histamine H3 receptor [23]): -0.16; pKb (Histamine H3 receptor [24]): < 5
CC(CC(=O)/N=C(\N)NCCCc1ccccn1)c1ccccc1 (stereo not drawn)	< 5	< 5	5.34	0.21	0.3	-0.17					Efficacy [18]: 26%; EC50 (Histamine H2 receptor [25]): 0.832 µM; EC50 (Histamine H2 receptor [26]): 0.195 µM
CN/C(=N\C#N)NCCCNc1nccc(N)n1			< 5	0.03						inactive	pEC50 (Histamine H4 receptor [12]): inactive; Intrinsic activity (Histamine H3 receptor [23]): -0.24; pKb (Histamine H3 receptor [24]): < 5
